Test results published in patent publication US20100041597A1, “PEPTIDES TARGETED TO PROTEIN KINASE C ISOFORMS AND USES THEREOF” (priority 2005, published 2010).

Key:
PKC-α [1] = molecular target: T1, PKC-α (Homo sapiens, UniProt P17252); experiment: Subcellular localisation of PKC-α in IMR-32 cells; assay type: cell-based; parameters: subcellular localisation of endogenous PKC-α in IMR-32 cells; endogenous in cells; host or cells: IMR-32; settings: 10 mg/ml, pinocytic endocytosis
Description: Peptides PRE 3 or PRE 4 (10 mg/ml) were introduced into human neuroblastoma cells (IMR-32) by pinocytic endocytosis. The cells were fixed and stained with rabbit PKC-A primary antibody and anti-rabbit Alexa-488 or Alexa-800 secondary antibody.
In most of the cells PKC-α can be seen to be located in the cytoplasm, around the nucleus and at the plasma membrane (where it becomes activated).

PKC-β = experiment: In vitro competition with anti-PKC-β antibody, Protocol B, IMR-32 cells; assay type: binding, human; settings: PKC-β, IMR-32, Table 8
Description: The ability of the peptides PRE 2 and PRE 3 (see Table 3) to interfere with the binding of a PKC-α-specific polyclonal antibody (Santa Cruz Biotechnology, Inc.) to PKC-α was determined using a modified version of the protocol outlined above in which the test peptide was added directly to the cell extract prior to electrophoresis at a concentration of either 5× or 15× the concentration of the protein applied to each well of the gel for the Western blots (20 μg).
Peptides PRE 2 and PRE 3 (see Table 3) were tested for their ability to interfere with the binding of a PKC-β-specific polyclonal antibody (Santa Cruz Biotechnology, Inc.) to PKC-β using the general protocol described in Example 3.

PKC-α [2] = molecular target: T1, PKC-α; experiment: In vitro competition with anti-PKC-α antibody on blotted cell lysate, Protocol A, IMR-32 cells; assay type: binding; parameters: subcellular localisation of endogenous PKC-α in IMR-32 cells; endogenous in cells; host or cells: IMR-32
Description: The ability of the peptides to interfere with the binding of a PKC-α-specific monoclonal antibody to PKC-α was determined using the following protocol.
Cell lysates from either IMR-32 (human neuroblastoma) cells or C6Cx43 cells (rat glioma transfected cells overexpressing connexin 43) were obtained using standard protocols and the proteins of the lysate were separated by SDS PAGE electrophoresis and electrotransferred onto a nitrocellulose membrane. […] A primary polyclonal antibody specific for PKC-α (Santa Cruz Biotechnology, Inc., CA) was then added (15 μg/ml) and the membrane incubated for a further 45 minutes. Finally, the primary antibody was detected with a secondary antibody conjugated to alkaline phosphatase using standard procedures. The intensity of the band corresponding to PKC-α was assessed by scanning and densitometry using the Gel-Pro software (Media Cybernetics) to obtain relative band intensities (average of 3 replicas). Control assays were conducted as described above except that blocking buffer without peptide was used.
The results are expressed as relative band intensity and as a percentage of the intensity of the corresponding band in the control assay (“Relative intensity (%)”). “% inhibition” relates to the percentage of the PKC-α band that is inaccessible to the antibody.

PKC-βII = PKC-βII (Homo sapiens, UniProt P05771); experiment: In vitro competition with anti-PKC-βII antibody, Protocol B, IMR-32 cells; assay type: binding; parameters: PRE 3 and PRE 4 in IMR-32 Neuroblastoma Cells: Protocol B; endogenous in cells; host or cells: IMR-32; settings: for inhibition at 0.1 mg / remaining activity at 0.1 mg / Band Intensity / inhibition at 0.2 mg / remaining activity at 0.2 mg / inhibition at 0.3 mg / remaining activity at 0.3 mg: PKC-βII; for inhibition at 0.1 mg / inhibition at 0.2 mg / inhibition at 0.3 mg: Table 9; for remaining activity at 0.1 mg / remaining activity at 0.2 mg / remaining activity at 0.3 mg: Table 9, read-out: Relative Intensity (%); for Band Intensity: control band intensity 98.6, Table 9
Sequence of PKC-βII (P05771 1-673 isoform P05771-2): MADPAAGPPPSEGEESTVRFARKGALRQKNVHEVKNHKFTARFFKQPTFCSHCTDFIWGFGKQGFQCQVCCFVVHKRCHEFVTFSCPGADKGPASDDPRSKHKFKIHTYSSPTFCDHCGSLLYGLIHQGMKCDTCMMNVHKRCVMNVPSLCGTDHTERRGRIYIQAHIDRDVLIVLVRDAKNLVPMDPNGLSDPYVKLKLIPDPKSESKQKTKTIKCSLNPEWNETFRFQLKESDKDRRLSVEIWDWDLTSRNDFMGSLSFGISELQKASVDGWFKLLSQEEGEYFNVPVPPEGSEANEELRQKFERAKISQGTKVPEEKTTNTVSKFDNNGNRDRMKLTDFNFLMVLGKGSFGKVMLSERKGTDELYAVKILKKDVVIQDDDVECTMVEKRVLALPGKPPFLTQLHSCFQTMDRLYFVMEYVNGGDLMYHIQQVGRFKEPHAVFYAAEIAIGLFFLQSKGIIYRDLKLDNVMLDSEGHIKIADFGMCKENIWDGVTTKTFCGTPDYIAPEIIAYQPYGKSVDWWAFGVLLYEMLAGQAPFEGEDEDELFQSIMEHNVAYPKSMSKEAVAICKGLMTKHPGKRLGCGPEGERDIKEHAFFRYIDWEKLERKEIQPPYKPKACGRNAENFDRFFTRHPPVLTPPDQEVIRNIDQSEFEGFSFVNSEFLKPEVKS
Description: Peptides PRE 3 and PRE 4 (see Table 3) were tested for their ability to interfere with the binding of isoform-specific polyclonal antibodies (Santa Cruz Biotechnology, Inc.) to PKC-α, PKC-βI or PKC-βII using the general protocol described in Example 3.

PKC-α [3] = molecular target: T1, PKC-α; experiment: Antibody competitive binding assay with fluorescent antibody (FIG. 4); settings: PRE at 20× concentration
Description: FIG. 4 presents data from conventional antibody competitive binding assays using PKC-α versus a representative battery of PKC isoforms (commercially available). PKC isoforms representing the three subgroups of the PKC family were assessed (classical PKCs=PKCalpha; novel PKCs=PKCdelta and epsilon; atypical PKCs=PKCzeta). Controls received the appropriate PKC isoform fluorescent antibody. Treated samples received the PRE sequence from PhGα1 (20× concentration) and the same PKC antibody. Specific affinity to PKC-α in the treated sample by the PRE will therefore decrease the amount of binding by the fluorescent antibody, represented by a decrease in fluorescent intensity in the treated sample.

[4] = 75 μg peptide, IMR-32, Protocol A, Table 4
[5] = 300 μg peptide, IMR-32, Protocol A, Table 4

For Ac-AKGIQEVKGGDAQNLIGISI-NH2 [PRE 3], the “effect on subcellular localisation of PKC-α” value (PKC-α [1]) was “does not alter the subcellular localisation of PKC-α”, the “Band Intensity” value (PKC-β; 100 μg) was 0.0 and the “Inhibition (%)” value (PKC-β; 100 μg) was 100.0%. For the same substance, the “Relative Intensity (%)” value (PKC-β; 100 μg) was 0.0%, the “Band Intensity” value (PKC-β; 200 μg) was 0.0 and the “Inhibition (%)” value (PKC-β; 200 μg) was 100.0%. The “Relative Intensity (%)” value (PKC-β; 200 μg) was 0.0%, the “Band Intensity” value (PKC-β; 300 μg) was 0.0 and the “Inhibition (%)” value (PKC-β; 300 μg) was 100.0%. For the same substance, the “Relative Intensity (%)” value (PKC-β; 300 μg) was 0.0%, the “Band Intensity” value (PKC-α [2]; 75 μg, IMR-32 Cells, Table 5) was 0.889 and the inhibition at 0.075 mg (PKC-α [2]; 75 μg, IMR-32 Cells, Table 5) was 0.7%. For the same substance, the remaining activity at 0.075 mg (PKC-α [2]; 75 μg, IMR-32 Cells, Table 5, read-out: Relative Intensity (%)) was 99.3%, the “Band Intensity” value (PKC-α [2]; 300 μg, IMR-32 Cells, Table 5) was 0.922 and the inhibition at 0.3 mg (PKC-α [2]; 300 μg, IMR-32 Cells, Table 5) was 0%. For the same substance, the remaining activity at 0.3 mg (PKC-α [2]; 300 μg, IMR-32 Cells, Table 5, read-out: Relative Intensity (%)) was 103%, the “Band Intensity” value (PKC-α [2]; 600 μg, IMR-32 Cells, Table 5) was 0.888 and the inhibition at 0.6 mg (PKC-α [2]; 600 μg, IMR-32 Cells, Table 5) was 0%. For the same substance, the remaining activity at 0.6 mg (PKC-α [2]; 600 μg, IMR-32 Cells, Table 5, read-out: Relative Intensity (%)) was 99.2%, the “Band Intensity” value (PKC-α [2]; 3.75 mg, IMR-32 Cells, Table 5) was 0.600 and the remaining activity at 3.75 mg (PKC-α [2]; 3.75 mg, IMR-32 Cells, Table 5, read-out: Relative Intensity (%)) was 102%. For the same substance, the “Band Intensity” value (PKC-α [2]; 5.25 mg, IMR-32 Cells, Table 5) was 0.603, the remaining activity at 5.25 mg (PKC-α [2]; 5.25 mg, IMR-32 Cells, Table 5, read-out: Relative Intensity (%)) was 102% and the “Band Intensity” value (PKC-α [2]; 7.5 mg, IMR-32 Cells, Table 5) was 0.609. For the same substance, the inhibition at 7.5 mg (PKC-α [2]; 7.5 mg, IMR-32 Cells, Table 5) was 0%, the remaining activity at 7.5 mg (PKC-α [2]; 7.5 mg, IMR-32 Cells, Table 5, read-out: Relative Intensity (%)) was 103% and the “effect on antibody binding to PKC-α” value (PKC-α [2]; Protocol A) was “did not show an effect on antibody binding”. The inhibition at 0.1 mg (PKC-βII; 100 μg) was 100%, the remaining activity at 0.1 mg (PKC-βII; 100 μg) was 0% and the “Band Intensity” value (PKC-βII; 100 μg) was 0.0. The inhibition at 0.2 mg (PKC-βII; 200 μg) was 100%, the remaining activity at 0.2 mg (PKC-βII; 200 μg) was 0% and the “Band Intensity” value (PKC-βII; 200 μg) was 0.0. The inhibition at 0.3 mg (PKC-βII; 300 μg) was 100%, the remaining activity at 0.3 mg (PKC-βII; 300 μg) was 0% and the “Band Intensity” value (PKC-βII; 300 μg) was 0.0.
With “Ac-KDAQNLIGISI-NH2 [PRE 4, Ac-KDAQNLIGISI-NH2]” the “effect on subcellular localisation of PKC-α” value (PKC-α [1]) was “prevented translocation of PKC-α to the membrane”, the “effect on fluorescent antibody binding to PKC-α” value (PKC-α [3]) was “decrease in antibody binding” and the “effect on antibody binding to PKC-βII” value (PKC-βII) was “some cross-reactivity”. For the same substance, the inhibition at 0.1 mg (PKC-βII; 100 μg) was 29%, the remaining activity at 0.1 mg (PKC-βII; 100 μg) was 69.5% and the “Band Intensity” value (PKC-βII; 100 μg) was 69.58. For the same substance, the inhibition at 0.2 mg (PKC-βII; 200 μg) was 100%, the remaining activity at 0.2 mg (PKC-βII; 200 μg) was 0% and the “Band Intensity” value (PKC-βII; 200 μg) was 0.0. For the same substance, the inhibition at 0.3 mg (PKC-βII; 300 μg) was 100%, the remaining activity at 0.3 mg (PKC-βII; 300 μg) was 0% and the “Band Intensity” value (PKC-βII; 300 μg) was 0.0.
RRKKGGKDFVVKR [PRE 1] was tested, and the “Band Intensity” value (PKC-α [2]; [4]) was 1.040, the “Inhibition (%)” value (PKC-α [2]; [4]) was 50.2% and the “Relative Intensity (%)” value (PKC-α [2]; [4]) was 49.8%. For the same substance, the “Band Intensity” value (PKC-α [2]; [5]) was 0.771, the “Inhibition (%)” value (PKC-α [2]; [5]) was 63.1% and the “Relative Intensity (%)” value (PKC-α [2]; [5]) was 36.9%. The “effect on antibody binding to PKC-α” value (PKC-α [2]; Protocol A) was “mask the antigenic site of PKC-α”.
